Values of other authors in article PMC7395068, “The evolution of strategies to minimise the risk of human drug-induced liver injury (DILI) in drug discovery and development” (Archives of Toxicology, 2020).
Read-outs that look alike come from different tables or passages of the source.

Conditions: cited from earlier work
[1] = binary in vivo DILI call given beside the severity category, ref Chen 2016
[2] = human DILI concern category (LTKB DILIrank), ref Chen 2016

| Structure (SMILES) | DILI +VE (5-8), DILI -VE (-4) [1] | DILI severity category [2] | DILI +VE (5-8), DILI -VE (-4) (in vivo) | DILI severity category (in vivo) |
| --- | --- | --- | --- | --- |
| O=C(O)C(=O)O.[NH-][C@@H]1CCCC[C@H]1[NH-].[Pt+2] [oxaliplatin] | +VE | vMost-DILI-Concern |  |  |
| O=C1Nc2ccc(Cl)cc2C(c2ccccc2)=NC1O (stereo not drawn) [oxazepam] |  |  | -VE | Ambiguous DILI-concern |
| COc1ccc2c3c1O[C@H]1C(=O)CC[C@@]4(O)[C@@H](C2)N(C)CC[C@]314 [oxycodone] |  |  | -VE | vNo-DILI-Concern |
| O=C1Nc2ccccc2C1(c1ccc(O)cc1)c1ccc(O)cc1 [oxyphenisatin] |  |  | +VE | vMost-DILI-Concern |
| CC[C@H](C)[C@@H]1NC(=O)[C@H](Cc2ccc(O)cc2)NC(=O)[C@@H](N)CSSC[C@@H](C(=O)N2CCC[C@H]2C(=O)N[C@@H](CC(C)C)C(=O)NCC(N)=O)NC(=O)[C@H](CC(N)=O)NC(=O)[C@H](CCC(N)=O)NC1=O [oxytocin] |  |  | -VE | vNo-DILI-Concern |
| CONC(=N)c1ccc(-c2ccc(-c3ccc(C(=N)NOC)cc3)o2)cc1 [pafuramidine] | +VE | vMost-DILI-Concern |  |  |
| O=C1c2cccc3c2[C@H](CCC3)CN1[C@@H]1CN2CCC1CC2 [palonosetron] | -VE | Ambiguous DILI-concern |  |  |
| CC(=O)O[C@H]1C[C@@H]2CC[C@@H]3[C@H](CC[C@@]4(C)[C@H]3C[C@H]([N+]3(C)CCCCC3)[C@@H]4OC(C)=O)[C@@]2(C)C[C@@H]1[N+]1(C)CCCCC1 [pancuronium] |  |  | -VE | vNo-DILI-Concern |
| COc1ccnc(C[S+]([O-])c2nc3ccc(OC(F)F)cc3[nH]2)c1OC (stereo not drawn) [pantoprazole] | +VE | vLess-DILI-Concern |  |  |
| COc1ccc(Cc2nccc3cc(OC)c(OC)cc23)cc1OC [papaverine] |  |  | +VE | vMost-DILI-Concern |
| C[C@H](/C=C/[C@H](C)C(C)(C)O)[C@H]1CC[C@H]2/C(=C/C=C3C[C@@H](O)C[C@H](O)C3)CCC[C@]12C [paricalcitol] | -VE | Ambiguous DILI-concern |  |  |
| Nc1nc2[nH]cc(CCc3ccc(C(=O)N[C@@H](CCC(=O)O)C(=O)O)cc3)c2c(=O)[nH]1 [pemetrexed] | -VE | Ambiguous DILI-concern |  |  |
| CSCC[C@H](NC(=O)[C@H](Cc1c[nH]c2ccccc12)NC(=O)CCNC(=O)OC(C)(C)C)C(=O)N[C@@H](CC(=O)O)C(=O)N[C@@H](Cc1ccccc1)C(N)=O [pentagastrin] |  |  | -VE | vNo-DILI-Concern |
| N=C(N)c1ccc(OCCCCCOc2ccc(C(=N)N)cc2)cc1 [pentamidine] | +VE | vLess-DILI-Concern |  |  |
| CC(C)=CCN1CCC2(C)c3cc(O)ccc3CC1C2C (stereo not drawn) [pentazocine] | -VE | vNo-DILI-Concern |  |  |
| O=C(O)CN(CCN(CC(=O)O)CC(=O)O)CCN(CC(=O)O)CC(=O)O [pentetic acid] | -VE | vNo-DILI-Concern |  |  |
| CCCC(C)C1(CC)C(=O)NC(=O)NC1=O (stereo not drawn) [pentobarbital] | -VE | Ambiguous DILI-concern |  |  |
| OC[C@H]1O[C@@H](n2cnc3c2NC=NC[C@H]3O)C[C@@H]1O [pentostatin] | +VE | vMost-DILI-Concern |  |  |
| CC(=O)CCCCn1c(=O)c2c(ncn2C)n(C)c1=O [pentoxifylline] | -VE | Ambiguous DILI-concern |  |  |
| FC(F)(F)C(F)(F)C(F)(F)F [perflutren] | -VE | vNo-DILI-Concern |  |  |

| Structure (SMILES) | DILI +VE (5-8), DILI -VE (-4) [1] | DILI severity category [2] | DILI +VE (5-8), DILI -VE (-4) (in vivo) | DILI severity category (in vivo) |
| --- | --- | --- | --- | --- |
| CCC[C@H](N[C@@H](C)C(=O)N1[C@H](C(=O)O)C[C@@H]2CCCC[C@@H]21)C(=O)OCC [perindopril] | -VE | Ambiguous DILI-concern |  |  |
| CC1=C(C/C=C(\C)CCC[C@H](C)CCC[C@H](C)CCCC(C)C)C(=O)c2ccccc2C1=O [phytonadione] | -VE | vNo-DILI-Concern |  |  |
| O=C(O)C[C@H](O)C[C@H](O)/C=C/c1c(C2CC2)nc2ccccc2c1-c1ccc(F)cc1 [pitavastatin] | -VE | Ambiguous DILI-concern |  |  |
| c1cc(CN2CCCNCCNCCCNCC2)ccc1CN1CCCNCCNCCCNCC1 [plerixafor] | -VE | vNo-DILI-Concern |  |  |
| CN1C(CSCC(F)(F)F)Nc2cc(Cl)c(S(N)(=O)=O)cc2S1(=O)=O (stereo not drawn) [polythiazide] | -VE | Ambiguous DILI-concern |  |  |
| CC[C@@H]([C@H](C)O)n1ncn(-c2ccc(N3CCN(c4ccc(OC[C@@H]5CO[C@@](Cn6cncn6)(c6ccc(F)cc6F)C5)cc4)CC3)cc2)c1=O [posaconazole] | -VE | Ambiguous DILI-concern |  |  |
| C#CCC(Cc1cnc2nc(N)nc(N)c2n1)c1ccc(C(=O)N[C@@H](CCC(=O)O)C(=O)O)cc1 (stereo partly drawn) [pralatrexate] | -VE | Ambiguous DILI-concern |  |  |
| C[n+]1ccccc1/C=N/O [pralidoxime] | -VE | Ambiguous DILI-concern |  |  |
| CCO[C@@H]1OC(=O)C[C@@H]1NC(=O)[C@@H]1CCCN2C(=O)CC[C@H](NC(=O)c3nccc4ccccc34)C(=O)N12 [pralnacasan] | +VE | vMost-DILI-Concern |  |  |
| CCCN[C@H]1CCc2nc(N)sc2C1 [pramipexole] | -VE | Ambiguous DILI-concern |  |  |
| COc1cc2nc(N3CCN(C(=O)c4ccco4)CC3)nc(N)c2cc1OC [prazosin] |  |  | -VE | Ambiguous DILI-concern |
| CC(C)c1cccc(C(C)C)c1O [propofol] |  |  | +VE | vLess-DILI-Concern |
| NC(=O)[C@@H]1CCCN1C(=O)[C@H](Cc1cnc[nH]1)NC(=O)[C@@H]1CCC(=O)N1 [protirelin] |  |  | -VE | vNo-DILI-Concern |
| Fc1ccccc1C1=NCC(=S)N(CC(F)(F)F)c2ccc(Cl)cc21 [quazepam] | -VE | vNo-DILI-Concern |  |  |
| OCCOCCN1CCN(C2=Nc3ccccc3Sc3ccccc32)CC1 [quetiapine] | +VE | vLess-DILI-Concern |  |  |
| COCCCOc1ccnc(C[S+]([O-])c2nc3ccccc3[nH]2)c1C (stereo not drawn) [rabeprazole] | +VE | vLess-DILI-Concern |  |  |
| CCC(=O)NCC[C@@H]1CCc2ccc3c(c21)CCO3 [ramelteon] | -VE | vNo-DILI-Concern |  |  |
| CCOC(=O)[C@H](CCc1ccccc1)N[C@@H](C)C(=O)N1[C@H](C(=O)O)C[C@@H]2CCC[C@@H]21 [ramipril] |  |  | +VE | vLess-DILI-Concern |
| C#CCN[C@@H]1CCc2ccccc21 [rasagiline] | -VE | Ambiguous DILI-concern |  |  |
